Source: US20260184710A1, “CASITAS B-LINEAGE LYMPHOMA PROTOONCOGENE B (CBL-B) DEGRADING COMPOUNDS AND ASSOCIATED METHODS OF USE” (Arvinas Operations, Inc., priority 2022, published 2026)

Columns and labels:
[1] = biological target: T1, Cbl-b (Homo sapiens, UniProt Q13191); experiment: Cbl-b Degradation Method A (FACS, anti-Cbl-b antibody staining); type: cell-based; details: Cbl-b-HiBit KI Jurkat Cells, incubated at least 20 hours; for DC50: half maximal degradation, read-out: Cbl-b Degredation Method A IC50; for Dmax: Jurkat, maximum degradation observed, read-out: Cbl-b Degredation Method A Dmax (%)
T1 construct: Cbl-b-HiBit KI Jurkat Cells were purchased from Promega; host or cells: Cbl-b-HiBiT knock-in Jurkat cells
T1 sequence (Q13191 whole entry): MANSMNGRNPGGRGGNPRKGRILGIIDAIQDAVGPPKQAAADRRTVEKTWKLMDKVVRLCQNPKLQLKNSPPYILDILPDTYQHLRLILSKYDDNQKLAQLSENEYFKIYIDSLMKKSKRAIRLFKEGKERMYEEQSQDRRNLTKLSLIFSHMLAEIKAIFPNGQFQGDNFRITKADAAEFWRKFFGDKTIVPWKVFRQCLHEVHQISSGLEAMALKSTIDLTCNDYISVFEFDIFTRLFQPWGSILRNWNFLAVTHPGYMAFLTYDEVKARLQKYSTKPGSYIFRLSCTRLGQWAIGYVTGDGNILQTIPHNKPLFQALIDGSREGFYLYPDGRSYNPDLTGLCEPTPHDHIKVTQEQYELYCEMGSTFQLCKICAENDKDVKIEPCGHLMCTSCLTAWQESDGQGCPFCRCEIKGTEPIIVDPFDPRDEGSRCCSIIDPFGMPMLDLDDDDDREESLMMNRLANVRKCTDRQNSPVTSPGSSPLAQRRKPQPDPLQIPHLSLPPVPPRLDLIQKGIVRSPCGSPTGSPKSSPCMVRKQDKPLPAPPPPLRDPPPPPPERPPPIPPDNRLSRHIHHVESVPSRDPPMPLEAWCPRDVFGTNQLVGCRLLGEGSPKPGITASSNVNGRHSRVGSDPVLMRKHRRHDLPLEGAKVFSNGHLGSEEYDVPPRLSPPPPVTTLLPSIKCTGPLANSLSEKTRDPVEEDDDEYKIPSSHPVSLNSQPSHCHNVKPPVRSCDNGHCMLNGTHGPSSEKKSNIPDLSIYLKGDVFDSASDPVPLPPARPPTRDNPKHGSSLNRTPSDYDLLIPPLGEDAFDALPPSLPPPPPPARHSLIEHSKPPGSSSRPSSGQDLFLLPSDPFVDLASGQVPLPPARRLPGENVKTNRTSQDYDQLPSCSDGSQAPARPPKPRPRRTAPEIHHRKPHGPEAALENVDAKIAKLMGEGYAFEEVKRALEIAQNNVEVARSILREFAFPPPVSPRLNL
Procedure, shortened: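 Readout is flow cytometry of fixed, permeabilized cells immunostained for Cbl-b (primary 1:200, AF488 secondary). Cells were Cbl-b-HiBit knock-in Jurkat, exposed to compound ≥20 h at 37 °C; half-maximal degradation concentration (DC50) and maximal degradation (Dmax) calculated relative to control.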

[2] = biological target: T1, Cbl-b; experiment: Cbl-b Degradation Method B (Nano-Glo HiBiT lytic detection); type: cell-based; details: Cbl-b-HiBit KI Jurkat Cells, incubated at least 6-24 hours; for DC50: half maximal degradation, read-out: Cbl-b Degredation Method B IC50; for Cbl-b Degredation Method B Dmax (%) / Dmax: maximum degradation observed; for Dmax: read-out: Cbl-b Degredation Method B Dmax (%)
Procedure, shortened: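 An 11-point, 3-fold compound dilution was applied for 6-24 hours to Jurkat cells carrying HiBiT-tagged endogenous Cbl-b. Lytic HiBiT luminescence quantified residual protein. Outputs are DC50 and Dmax relative to DMSO control.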

DC50 [1]	Dmax [1]	DC50 [2]	Cbl-b Degredation Method B Dmax (%) [2]	Dmax [2]	SMILES
50 to 500 nM	35 to 70%	< 5 nM	C (C ≤ 35)	–	Cn1cnnc1CC1(c2cccc(N3Cc4c(cc(CN5CCN(C[C@H]6CC[C@H](OC7CCN(c8cccc9c8n(C8CC8)c(=O)n9C8CCC(=O)NC8=O)CC7)CC6)CC5(C)C)cc4C(F)(F)F)C3=O)c2)CC(C#N)C1 (stereo partly drawn) [Example 312, (1r**,3r**)-3-(3-{6-[(2,2-dimethyl-4-{[(1r*,4r*)-4-({1-[3-cyclopropyl-1-(2,6-dioxopiperidin-3-yl)-2-oxo-2,3-dihydro-1H-1,3-benzodiazol-4-yl]piperidin-4-yl}oxy)cyclohexyl]methyl}piperazin-1-yl)methyl]-1-oxo-4-(trifluoromethyl)-2,3-dihydro-1H-isoindol-2-yl}phenyl)-3-[(4-methyl-4H-1,2,4-triazol-3-yl)methyl]cyclobutane-1-carbonitrile]
> 500 nM	–	> 500 nM	–	–	Cn1cnnc1CC1(c2cccc(N3Cc4c(cc(CN5CCC(CN6CC7(C6)CN(c6ccc8c(c6)C(=O)N(C6CCC(=O)NC6=O)C8=O)C7)CC5)cc4C(F)(F)F)C3=O)c2)COC1 (stereo not drawn) [Example 31, 2-(2,6-dioxopiperidin-3-yl)-5-{6-[(1-{[2-(3-{3-[(4-methyl-4H-1,2,4-triazol-3-yl)methyl]oxetan-3-yl}phenyl)-3-oxo-7-(trifluoromethyl)-2,3-dihydro-1H-isoindol-5-yl]methyl}piperidin-4-yl)methyl]-2,6-diazaspiro[3.3]heptan-2-yl}-2,3-dihydro-1H-isoindole-1,3-dione]
< 5 nM	35 to 70%	< 5 nM	–	35 to 70%	Cn1cnnc1CC1(c2cccc(N3Cc4c(cc(N5CC6(CCN(CC7CCN(c8ccc9c(c8)CN(C8CCC(=O)NC8=O)C9=O)CC7)CC6)C5)cc4C(F)(F)F)C3=O)c2)COC1 (stereo not drawn) [Example 117, 3-{5-[4-({2-[2-(3-{3-[(4-methyl-4H-1,2,4-triazol-3-yl)methyl]oxetan-3-yl}phenyl)-3-oxo-7-(trifluoromethyl)-2,3-dihydro-1H-isoindol-5-yl]-2,7-diazaspiro[3.5]nonan-7-yl}methyl)piperidin-1-yl]-1-oxo-2,3-dihydro-1H-isoindol-2-yl}piperidine-2,6-dione]
5 to 50 nM	35 to 70%	< 5 nM	–	35 to 70%	Cn1cnnc1CC1(c2cccc(N3Cc4c(cc(CN5CCN(C[C@H]6CC[C@H](OC7CCN(c8ccc9c(n8)CN(C8CCC(=O)NC8=O)C9=O)CC7)CC6)CC5)cc4C(F)(F)F)C3=O)c2)COC1 (stereo partly drawn) [Example 112, 3-[5-oxo-2-(4-{[(1r,4r)-4-[(4-{[2-(3-{3-[(4-methyl-4H-1,2,4-triazol-3-yl)methyl]oxetan-3-yl}phenyl)-3-oxo-7-(trifluoromethyl)-2,3-dihydro-1H-isoindol-5-yl]methyl}piperazin-1-yl)methyl]cyclohexyl]oxy}piperidin-1-yl)-5H,6H,7H-pyrrolo[3,4-b]pyridin-6-yl]piperidine-2,6-dione]
50 to 500 nM	> 70%	5 to 50 nM	–	< 35%	Cn1cnnc1CC1(c2cccc(N3Cc4c(cc(N5CCC[C@H](CN6CCC(CN7CCC(CN8CCN(c9ccc%10c(c9)C(=O)N(C9CCC(=O)NC9=O)C%10=O)CC8)CC7)CC6)C5)cc4C(F)(F)F)C3=O)c2)COC1 (stereo partly drawn) [Example 16, 2-(2,6-dioxo-3-piperidyl)-5-[4-[[1-[[1-[[(3R)-1-[2-[3-[3-[(4-methyl-1,2,4-triazol-3-yl)methyl]oxetan-3-yl]phenyl]-3-oxo-7-(trifluoromethyl)isoindolin-5-yl]-3-piperidyl]methyl]-4-piperidyl]methyl]-4-piperidyl]methyl]piperazin-1-yl]isoindoline-1,3-dione]
5 to 50 nM	35 to 70%	5 to 50 nM	–	35 to 70%	Cn1cnnc1C[C@]1(c2cccc(N3Cc4c(cc(N5CC6(CCN(CC7CCN(c8ccc9c(c8)C(=O)N(C8CCC(=O)NC8=O)C9=O)CC7)CC6)C5)cc4C(F)(F)F)C3=O)c2)C[C@@H](C#N)C1 (stereo partly drawn) [Example 137, (1s,3s)-3-(3-{6-[7-({1-[2-(2,6-dioxopiperidin-3-yl)-1,3-dioxo-2,3-dihydro-1H-isoindol-5-yl]piperidin-4-yl}methyl)-2,7-diazaspiro[3.5]nonan-2-yl]-1-oxo-4-(trifluoromethyl)-2,3-dihydro-1H-isoindol-2-yl}phenyl)-3-[(4-methyl-4H-1,2,4-triazol-3-yl)methyl]cyclobutane-1-carbonitrile]
> 500 nM	–	> 500 nM	–	–	Cn1cnnc1CC1(c2cccc(N3Cc4c(cc(N5CCC(C6CCN(c7ccc8c(c7)C(=O)N(C7CCC(=O)NC7=O)C8=O)CC6)CC5)cc4C(F)(F)F)C3=O)c2)COC1 (stereo not drawn) [Example 124, 2-(2,6-dioxopiperidin-3-yl)-5-{1′-[2-(3-{3-[(4-methyl-4H-1,2,4-triazol-3-yl)methyl]oxetan-3-yl}phenyl)-3-oxo-7-(trifluoromethyl)-2,3-dihydro-1H-isoindol-5-yl]-[4,4′-bipiperidin]-1-yl}-2,3-dihydro-1H-isoindole-1,3-dione]
50 to 500 nM	35 to 70%	< 5 nM	C (C ≤ 35)	–	CC(C)n1c(=O)n(C2CCC(=O)NC2=O)c2ccc(N3CCC(O[C@H]4CC[C@H](CN5CCN(Cc6cc7c(c(C(F)(F)F)c6)CN(c6cccc(C8(Cc9nncn9C)CC(C#N)C8)c6)C7=O)C(C)(C)C5)CC4)CC3)c(F)c21 (stereo partly drawn) [Example 318, (1r**,3r**)-3-(3-{6-[(2,2-dimethyl-4-{[(1r*,4r*)-4-({1-[1-(2,6-dioxopiperidin-3-yl)-4-fluoro-2-oxo-3-(propan-2-yl)-2,3-dihydro-1H-1,3-benzodiazol-5-yl]piperidin-4-yl}oxy)cyclohexyl]methyl}piperazin-1-yl)methyl]-1-oxo-4-(trifluoromethyl)-2,3-dihydro-1H-isoindol-2-yl}phenyl)-3-[(4-methyl-4H-1,2,4-triazol-3-yl)methyl]cyclobutane-1-carbonitrile]
< 5 nM	> 70%	< 5 nM	–	35 to 70%	CC1CN(Cc2cc3c(c(C(F)(F)F)c2)CN(c2cccc(C4(Cc5nncn5C)COC4)c2)C3=O)CCN1C[C@H]1CC[C@H](OC2CCN(c3ccc4c(c3F)CN(C3CCC(=O)NC3=O)C4=O)CC2)CC1 (stereo partly drawn) [Example 196, 3-[4-fluoro-1-oxo-5-(4-{[(1r,4r)-4-[(2-methyl-4-{[2-(3-{3-[(4-methyl-4H-1,2,4-triazol-3-yl)methyl]oxetan-3-yl}phenyl)-3-oxo-7-(trifluoromethyl)-2,3-dihydro-1H-isoindol-5-yl]methyl}piperazin-1-yl)methyl]cyclohexyl]oxy}piperidin-1-yl)-2,3-dihydro-1H-isoindol-2-yl]piperidine-2,6-dione]
50 to 500 nM	–	> 500 nM	–	–	Cn1cnnc1CC1(c2cccc(N3Cc4c(cc(CN5CCC(COCCOc6ccc7c(c6)C(=O)N(C6CCC(=O)NC6=O)C7=O)CC5)cc4C(F)(F)F)C3=O)c2)COC1 (stereo not drawn) [Example 87, 2-(2,6-dioxopiperidin-3-yl)-5-(2-((1-((2-(3-(3-((4-methyl-4H-1,2,4-triazol-3-yl)methyl)oxetan-3-yl)phenyl)-3-oxo-7-(trifluoromethyl)isoindolin-5-yl)methyl)piperidin-4-yl)methoxy)ethoxy)isoindoline-1,3-dione]
5 to 50 nM	35 to 70%	< 5 nM	–	35 to 70%	CC1CN(C[C@H]2CC[C@H](OC3CCN(c4ccc5c(n4)C(C)N(C4CCC(=O)NC4=O)C5=O)CC3)CC2)CCN1Cc1cc2c(c(C(F)(F)F)c1)CN(c1cccc(C3(Cc4nncn4C)CC3)c1)C2=O (stereo partly drawn) [Example 212, 3-[7-methyl-5-oxo-2-(4-{[(1r,4r)-4-[(3-methyl-4-{[2-(3-{1-[(4-methyl-4H-1,2,4-triazol-3-yl)methyl]cyclopropyl}phenyl)-3-oxo-7-(trifluoromethyl)-2,3-dihydro-1H-isoindol-5-yl]methyl}piperazin-1-yl)methyl]cyclohexyl]oxy}piperidin-1-yl)-5H,6H,7H-pyrrolo[3,4-b]pyridin-6-yl]piperidine-2,6-dione]
50 to 500 nM	35 to 70%	< 5 nM	C (C ≤ 35)	–	CC(C)n1c(=O)n(C2CCC(=O)NC2=O)c2cccc(N3CCC(O[C@H]4CC[C@H](CN5CCN(Cc6cc7c(c(C(F)(F)F)c6)CN(c6cccc([C@]8(Cc9nncn9C)C[C@H](C#N)C8)c6)C7=O)CC[C@@H]5C)CC4)CC3)c21 (stereo partly drawn) [Example 326, (1r,3r)-3-[3-(6-{[(5S)-5-methyl-4-{[(1r,4r)-4-({1-[1-(2,6-dioxopiperidin-3-yl)-2-oxo-3-(propan-2-yl)-2,3-dihydro-1H-1,3-benzodiazol-4-yl]piperidin-4-yl}oxy)cyclohexyl]methyl}-1,4-diazepan-1-yl]methyl}-1-oxo-4-(trifluoromethyl)-2,3-dihydro-1H-isoindol-2-yl)phenyl]-3-[(4-methyl-4H-1,2,4-triazol-3-yl)methyl]cyclobutane-1-carbonitrile]
